From patent US7550483B2, “Amorphous salt of 4-(3-chloro-4-(cyclopropylaminocarbonyl)aminophenoxy)-7-methoxy-6-quinolinecarboxamide and process for preparing the same” (Eisai R&D Management Co., Ltd., priority 2005, dated 2009)

Tests used:
[1] = Test for measuring dissolution rate (rotating disk method); format: physicochemical; details: 2nd fluid pH 6.8, 500 mL, 37° C., 50 rpm, 1 cm^2
Procedure: The dissolution rates of the following crystal and amorphous compounds were measured under the conditions described below by the rotating disk method (see, J. H. Woods et al., J. Pharm. Soc., 54, 1068 (1955)): a crystalline form of the free carboxamide obtained in Preparation Example 1, an amorphous form of the methanesulfonate of the carboxamide obtained in Example 1 and an amorphous form of the ethanesulfonate obtained in Example 2. The dissolution rates were calculated based on a range in which linearity was maintained in the relation between concentration and time at the initial stage of dissolution.
(Rotating disk method conditions)
Solvent: “2nd fluid” (pH 6.8, 500 mL) as described in Japanese Pharmacopoeia 14th Edition, General Tests (disintegration test)
Disk rotation speed: 50 rpm
Area of powder contacting with solvent on disk: 1 cm^2
Sampling amount: approx. 1 mL
Column: YMC Pack ProC18 (YMC Co., Ltd.; inner diameter 4.6 mm, column length 150 mm, particle size 5 μm)
Column temperature: 40° C.
Concentration of solution B: 20%
Detection: ultraviolet absorbance photometer (wavelength: 252 nm)
Temperature of auto sampler: 25° C.

[2] = system: angiogenesis; details: free-form product; WO02/32872 Example 368; cited from earlier work
[3] = target: c-Kit kinase (Homo sapiens, UniProt P10721); details: AACR 2004 proceedings; WO2004/080462; cited from earlier work
Sequence of c-Kit kinase (P10721 26-976): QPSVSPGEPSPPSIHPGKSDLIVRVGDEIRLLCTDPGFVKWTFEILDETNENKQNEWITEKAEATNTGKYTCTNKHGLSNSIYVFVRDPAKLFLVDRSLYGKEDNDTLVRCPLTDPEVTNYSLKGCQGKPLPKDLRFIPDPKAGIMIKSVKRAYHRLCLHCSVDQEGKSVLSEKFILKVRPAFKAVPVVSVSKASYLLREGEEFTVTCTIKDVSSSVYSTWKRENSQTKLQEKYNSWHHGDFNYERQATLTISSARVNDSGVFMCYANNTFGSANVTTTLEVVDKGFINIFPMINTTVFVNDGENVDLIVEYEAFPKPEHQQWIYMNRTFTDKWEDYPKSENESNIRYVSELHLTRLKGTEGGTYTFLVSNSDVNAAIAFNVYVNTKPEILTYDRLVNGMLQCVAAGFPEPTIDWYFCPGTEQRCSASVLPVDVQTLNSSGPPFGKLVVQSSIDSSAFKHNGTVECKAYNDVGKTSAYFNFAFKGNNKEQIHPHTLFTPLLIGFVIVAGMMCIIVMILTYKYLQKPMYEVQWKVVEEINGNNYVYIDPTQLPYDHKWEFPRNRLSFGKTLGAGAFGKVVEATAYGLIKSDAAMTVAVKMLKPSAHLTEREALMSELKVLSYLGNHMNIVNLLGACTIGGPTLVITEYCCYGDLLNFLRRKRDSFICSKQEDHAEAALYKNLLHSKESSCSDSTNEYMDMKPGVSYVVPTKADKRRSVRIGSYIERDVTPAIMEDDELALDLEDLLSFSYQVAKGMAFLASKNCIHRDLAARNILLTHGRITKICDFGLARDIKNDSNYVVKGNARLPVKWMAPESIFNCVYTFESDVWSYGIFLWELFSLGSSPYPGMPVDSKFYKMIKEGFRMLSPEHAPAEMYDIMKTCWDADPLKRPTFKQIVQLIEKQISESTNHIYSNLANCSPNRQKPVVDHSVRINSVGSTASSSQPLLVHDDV

| SMILES | dissolution rate [1] | angiogenesis inhibition [2] | inhibitory action for c-Kit kinase [3] |
| --- | --- | --- | --- |
| CCS(=O)(=O)O.COc1cc2nccc(Oc3ccc(NC(=O)NC4CC4)c(Cl)c3)c2cc1C(N)=O [esylate amorphous, An amorphous form of the ethanesulfonate of 4-(3-chloro-4-(cyclopropylaminocarbonyl)aminophenoxy)-7-methoxy-6-quinolinecarboxamide] | 25.1 μg/min/cm^2 |  |  |
| COc1cc2nccc(Oc3ccc(NC(=O)NC4CC4)c(Cl)c3)c2cc1C(N)=O [free form, 4-(3-chloro-4-(cyclopropylaminocarbonyl)aminophenoxy)-7-methoxy-6-quinolinecarboxamide] | 1.1 μg/min/cm^2 | excellent angiogenesis inhibition | strong inhibitory action |
| COc1cc2nccc(Oc3ccc(NC(=O)NC4CC4)c(Cl)c3)c2cc1C(N)=O.CS(=O)(=O)O [mesylate amorphous, An amorphous form of the methanesulfonate of 4-(3-chloro-4-(cyclopropylaminocarbonyl)aminophenoxy)-7-methoxy-6-quinolinecarboxamide] | 22.7 μg/min/cm^2 |  |  |
